The values below come from PubChem BioAssay (NCI).

Structures are written as SMILES.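 Exposure lasted 48 hours, with cells grown in 96-well plates and compounds tested at five concentrations. GI50 = concentration required for 50% inhibition of growth. At the TGI there is no net growth.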

Some test systems named below: DLD-1 colon; SN12K1 renal; M19-MEL melanoma; P388 leukemia; SNB-78 CNS; P388/ADR leukemia; MDA-N; LXFL 529 NSCLC; RXF-631 renal; DMS 273 small cell lung; HOP-18 NSCLC.
Assay in all cases: NCI tumour cell line growth inhibition, 48 h

Consider `CC1OC(O[C@@H]2C=C3CC[C@@H]4[C@H](CC[C@]5(C)[C@@H](c6ccc(=O)oc6)CC[C@]45O)[C@@]3(C)CC2)C(O)C(OC2OC(CO)C(O)C(O)C2O)C1O` (stereo partly specified), for which the TGI came to 0.0253 µM in the test on DLD-1 colon; 0.025 µM with SN12K1 renal; 0.039 µM in the test on M19-MEL melanoma; 115 µM with P388 leukemia; 0.033 µM in the test on SNB-78 CNS; 142 µM with P388/ADR leukemia.

The compound `Cc1cc(O)c2c(c1)C(C1c3cccc(O)c3C(=O)c3c(O)cc(C)cc31)c1cccc(O)c1C2=O` (stereo unspecified) yielded a TGI in the test with MDA-N of 20.8 µM.

Consider `O=S(O)c1cc(Cl)c(O)c(Cl)c1`, for which the TGI with DLD-1 colon, in the test on M19-MEL melanoma, with LXFL 529 NSCLC, with RXF-631 renal and in the test with SNB-78 CNS was above 100 µM in each case.

Consider `CC(=O)OCC1OC(N=[N+]=[N-])C(OC(C)=O)C(OC(C)=O)C1OC1OC(COC(C)=O)C(OC(C)=O)C(OC(C)=O)C1OC(C)=O` (stereo unspecified), for which the TGI with DMS 273 small cell lung, in the test on M19-MEL melanoma, in the test on LXFL 529 NSCLC, in the test on RXF-631 renal and in the test with SNB-78 CNS was above 100 µM throughout.

On to `O=C1C(=C([O-])c2ccccc2)C(=O)c2ccccc21.O=C1C(=C([O-])c2ccccc2)C(=O)c2ccccc21.[Ni+2]`, for which the values for the GI50 with DLD-1 colon and in the test on HOP-18 NSCLC were 40.2 µM and 27.9 µM, respectively. Moreover, the TGI in the test on DLD-1 colon and with HOP-18 NSCLC was above 100 µM throughout.

Compound `COc1ccc([I+]c2ccc(OC)cc2)cc1` gave a TGI in the test on MDA-N above 38.3 µM.

Take `COc1cc2c[n+](C)c3c4cc(OC)c(OCc5ccccc5)cc4c(OCc4ccccc4)cc3c2cc1OC`: the TGI in the test with MDA-N stood at 12 µM.

In turn, `O=c1[nH]c(=O)n(C2CC(O)C(CO)O2)cc1Br` (stereo unspecified) had a TGI in the test with MDA-N above 100 µM.

For `COc1cc(O)c(Cc2ccccc2O)c(O)c1C(=O)CCc1ccccc1`, the TGI was 30.7 µM in the test on DLD-1 colon; 19.5 µM with SN12K1 renal; 13.1 µM in the test with DMS 273 small cell lung; 20.5 µM in the test with M19-MEL melanoma; 4.53 µM in the test with HOP-18 NSCLC; 13.5 µM with P388 leukemia. Besides, the TGI in the test on SNB-78 CNS came out at 31.4 µM; in the test with P388/ADR leukemia it was 14 µM.

In the case of `NC(=O)/N=C/c1c(O)c2ccccc2oc1=O`, the TGI in the test on DLD-1 colon, with DMS 273 small cell lung, in the test with LXFL 529 NSCLC and in the test with SNB-78 CNS was above 100 µM throughout.
